Measurements: paper PMC10020958, “2-(4-Fluorophenyl)-1H-benzo[d]imidazole as a Promising Template for the Development of Metabolically Robust, α1β2γ2GABA-A Receptor-Positive Allosteric Modulators” (ACS Chemical Neuroscience, 2023)
≈ marks a conversion by molar mass, not a printed value.

Experiments:
[1] = molecular target: T1, α1β2γ2-GABA-A receptors stably expressed in HEK293 cells (Homo sapiens, UniProt P14867+P18507); test: Electrophysiological studies, automated patch clamp (QPatch16X), positive allosteric modulation of GABA-induced Cl- currents; format: cell-based; settings: compound 1 μM co-applied with 10 μM GABA; GABA alone = 100%; mean ± SEM
T1 construct: expressed in transfected cells
Procedure: Given that ligands binding within the α1/γ2 interface act as PAMs, we selected the most promising 1H-benzo[d]imidazoles (9, 15, 16, 23, and 29) for electrophysiological studies using automated patch clamp recordings (QPatch16X, Sophion). We expected that 1H-benzo[d]imidazoles would potentiate GABA-induced Cl^– currents rather than inducing ion passage alone.
Electrophysiology studies were performed using the QPatch16X automatic patch clamp platform (Sophion Biosciences) and HEK293 cells, stably expressing the α1β2γ2 subunits of the human GABA-A receptor. Prior to the assay recordings, the cells were transferred from the culture flask through a TrypLE Express solution (LifeTechnologies) and resuspended in serum-free media. The cells were placed in the lidless microtube, located onboard the automated electrophysiology instrument. The cells were then automatically relocated to a built-in centrifuge, spun down, and washed in Ringer’s extracellular solution. The cells were transferred to the pipetting wells of a single-use 16-channel planar patch chip plate (QPlate 16X), and gigaseals were formed upon implementation of a combined suction/voltage protocol. Subsequent suction induced whole-cell configuration. The chloride currents passed via the GABA-A receptor were recorded for 7 s after single addition of a tested molecule. Through whole-cell recording, the holding potential was set to −90 mV. The assay was performed at room temperature. The extracellular solution was composed of the following ingredients: consisted of 2 mM […], 145 mM NaCl, 10 mM HEPES, CaCl2, 1 mM MgCl2, 10 mM glucose (pH 7.4, 300 mOsm), and intracellular solution contained 140 mM CsF, 1 mM EGTA, 5 mM CsOH, 10 mM HEPES, and 20 mMNaCl (pH 7.2, 320 mOsm). The screening assays were established in the instrument software by sequential application of 10 μM GABA (reference agonist AG1), 1 μM examined molecule compounds, and compounds co-administered with 10 μM GABA (T2); second addition of 10 μM GABA (AG2); 10 μM bicuculline (reference antagonist) along with 10 μM GABA (ATG). The intermission among the addition of particular molecules was 60 s. In a typical procedure, 5 μL of ligand was added to the cells, followed by 3 s of washout with an extracellular solution (two times […]). For the allosteric modulator/antagonist mode, the cells were preincubated with the tested compound alone for 50 s, followed by the addition of the reference agonist. The data obtained were processed using QPatch Assay Software (v5.0, Sophion Biosciences) and are represented as the mean of at least three independent experiments performed on separate cells. The validation criteria for a single test were current amplitude evoked by adding GABA greater than 500 pA and a change between cells’ response to GABA applications (AG1 and AG2) not greater than 25%. The relative compound efficiency was analyzed as the baseline-corrected ratio of maximal current amplitudes induced by the addition of tested compounds and reference agonist (T1-ATG/AG1-ATG or T2-ATG/AG1-ATG). The obtained raw current recordings were normalized and represented as % of the current amplitude induced by a reference agonist (GABA = 100%) using the QPatch Assay Software (v5.0, Sophion Biosciences).[24]

[2] = system: HepG2 human hepatoma cells; test: Hepatotoxicity assay: mitochondrial membrane potential (JC-1 probe); format: cell-based; settings: 100 μM, 24 h treatment
Procedure: (§1) Given that drug-induced liver injury (DILI) is the leading cause of the termination of potential drug candidates,[21],[22] two of the main molecules 9 and 23 were further assayed in HepG2 human hepatoma cells to assess their potential risk of toxicity.[23] The hepatotoxicity of the compounds tested was evaluated using two methods: cell viability (Figure 8A,B) and mitochondrial membrane potential assay (Figure 8C).
(§2) Figure 8 Hepatotoxicity assays for selected lead molecules. Cell viability (A) was measured using the PrestoBlue reagent, cell membrane damage (B) was assessed using the ToxiLight bioassay, and mitochondrial membrane potential (C) was assessed using a JC-1 probe. Assays performed after 24 h treatment with tested compounds and a reference alpidem. Results are presented as mean % of untreated controls ± S.D. (n = 3). Differences among groups were evaluated by one-way ANOVA followed by post-hoc analysis (Dunnett’s multiple comparison tests) and were considered statistically significant if p < 0.05 (****p < 0.0001, ***p < 0.001, **p < 0.01, and *p < 0.05). […]
(§3) Cell viability was measured using the PrestoBlue reagent (Thermo Fisher). […] Metabolically active cells are capable of reducing the PrestoBlue reagent, with the colorimetric changes used as an indicator to quantify the viability of cells in culture. This change can be determined by measuring the fluorescence. […] After 30 min of incubation at 37 °C, the fluorescence intensity (EX 530; EM 580 nm) was measured by using a multifunction plate reader (POLARstar Omega, BMG Labtech, Germany). Viability values were calculated as a percentage of live cells with respect to the control sample. Cell membrane damage was measured using the bioluminescent ToxiLight bioassay (Lonza). It quantitatively measures the release of adenylate kinase (AK) from the membranes of damaged cells. […] The enzyme actively phosphorylates ADP, and the resultant ATP is then measured using the bioluminescent firefly luciferase reaction with the ToxiLight reagent. […]

[3] = in vitro; settings: human; for remaining at 2 h, 50 μM: % remaining (parent compound)
Procedure: Given that our goal was to obtain metabolically stable scaffolds, we selected 9 and 23 as representatives of each series for metabolic stability studies using human liver microsomes (HLMs). In parallel, we interrogated the quality of 1H-benzo[d]imidazole derivatives by confronting them head-to-head with the comparator drug alpidem.
The in vitro evaluation of the metabolic stability of the selected compound was performed using human liver microsomes (HLMs) (Sigma-Aldrich, St. Louis, MO, USA) as described previously.[25] The reaction mixture contained 50 μM of tested molecules HLMs (1 mg/mL) in 10 mM tris–HCl buffer. Following 5 min of preincubation, 50 μL of the NADPH Regeneration System (Promega, Madison, WI, USA) was added to induce the reaction. Next, the resulting reaction mixture was incubated at 37 °C for 120 min. The reaction was quenched with the addition of 200 μL of cold extra pure methanol and then centrifuged at 14,000 rpm for 15 min. The resulting supernatant was analyzed using an LC/MS Waters ACQUITY TQD system (Waters, Milford, USA).

[4] = system: HepG2 human hepatoma cells; test: Hepatotoxicity assay: cell viability (PrestoBlue) and cell membrane damage (ToxiLight); format: cell-based; settings: 24 h treatment; for cytotoxic effect in HepG2 cells: concentrations up to 50 μM
Procedure: as §1, §2, §3

[5] = molecular target: GABA-A receptor (benzodiazepine site, α1/γ2 interface); test: Radioligand binding assay for the GABA-A receptor ([3H]-flunitrazepam displacement, rat brain homogenate); settings: pKi = -log Ki, n.a. = no affinity
[6] = Thermodynamic solubility in phosphate buffer pH = 7.4; format: physicochemical; settings: phosphate buffer (Dulbecco's phosphate-buffered saline), aqueous buffer, thermodynamic from solid, phosphate buffer pH = 7.4, 20 °C
Procedure: Quantitative HPLC analyses were performed on a Waters Alliance e2695 Separations Module (Waters, Milford, CT, USA) with a detector 2998 Photodiode Array (PDA) detector (Waters, Milford, CT, USA) and the Chromolithe SpeedROD RP-18e 50–4.6 mm column (Merck, KGaA, Darmstadt, Germany). The column was kept at 30 °C. The conditions applied are as follows: eluent A (water/0.1% formic acid), eluent B (MeCN/0.1% formic acid), a flow rate of ,5 mL/min, a gradient of 0–100% B over 3 min, and an injection volume of 10 μL. Each sample was injected in triplicate. […] Standard solutions of the tested compounds and the reference compound were prepared in methanol at a concentration of 1 mg/mL. […] Next, 2 mg of the compound tested was dissolved in 1 mL of Dulbecco’s phosphate-buffered saline (DPBS), and the mixture was constantly agitated at 20 °C for 24 h in a thermoshaker. After that time, the mixtures were filtered through a cellulose acetate syringe filter (pore size 0.22 μm) and transferred to a chromatographic vial and analyzed using HPLC. For quantification, areas under the peaks of the investigated compounds on DAD chromatograms were used. Solubility was determined using the calibration curves.

T1 sequence (P14867 28-456): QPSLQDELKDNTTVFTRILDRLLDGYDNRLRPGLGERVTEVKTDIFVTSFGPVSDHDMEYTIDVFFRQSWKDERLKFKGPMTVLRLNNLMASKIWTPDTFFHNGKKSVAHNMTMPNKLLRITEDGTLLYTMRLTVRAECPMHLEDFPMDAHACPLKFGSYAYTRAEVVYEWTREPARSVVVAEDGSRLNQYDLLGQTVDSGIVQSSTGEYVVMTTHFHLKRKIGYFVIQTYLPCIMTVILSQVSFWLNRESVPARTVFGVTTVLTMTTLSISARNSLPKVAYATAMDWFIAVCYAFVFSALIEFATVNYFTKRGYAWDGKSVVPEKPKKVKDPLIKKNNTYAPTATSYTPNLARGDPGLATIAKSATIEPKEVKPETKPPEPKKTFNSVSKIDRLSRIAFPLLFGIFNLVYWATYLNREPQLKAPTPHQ
T1 sequence (P47870 25-512 partner limits assumed): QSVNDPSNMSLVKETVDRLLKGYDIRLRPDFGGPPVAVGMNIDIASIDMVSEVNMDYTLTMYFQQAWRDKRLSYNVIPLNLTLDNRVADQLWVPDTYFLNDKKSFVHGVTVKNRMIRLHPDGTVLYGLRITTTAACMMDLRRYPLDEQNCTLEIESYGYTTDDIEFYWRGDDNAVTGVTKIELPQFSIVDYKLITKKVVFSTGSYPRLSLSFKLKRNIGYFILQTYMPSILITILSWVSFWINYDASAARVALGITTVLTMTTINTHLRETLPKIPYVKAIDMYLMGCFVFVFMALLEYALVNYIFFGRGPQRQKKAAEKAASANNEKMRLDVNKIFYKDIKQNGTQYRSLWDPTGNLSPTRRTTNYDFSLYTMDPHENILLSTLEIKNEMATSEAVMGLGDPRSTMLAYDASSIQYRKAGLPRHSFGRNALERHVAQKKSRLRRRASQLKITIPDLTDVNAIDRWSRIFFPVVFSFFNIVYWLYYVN
T1 sequence (P18507 40-475): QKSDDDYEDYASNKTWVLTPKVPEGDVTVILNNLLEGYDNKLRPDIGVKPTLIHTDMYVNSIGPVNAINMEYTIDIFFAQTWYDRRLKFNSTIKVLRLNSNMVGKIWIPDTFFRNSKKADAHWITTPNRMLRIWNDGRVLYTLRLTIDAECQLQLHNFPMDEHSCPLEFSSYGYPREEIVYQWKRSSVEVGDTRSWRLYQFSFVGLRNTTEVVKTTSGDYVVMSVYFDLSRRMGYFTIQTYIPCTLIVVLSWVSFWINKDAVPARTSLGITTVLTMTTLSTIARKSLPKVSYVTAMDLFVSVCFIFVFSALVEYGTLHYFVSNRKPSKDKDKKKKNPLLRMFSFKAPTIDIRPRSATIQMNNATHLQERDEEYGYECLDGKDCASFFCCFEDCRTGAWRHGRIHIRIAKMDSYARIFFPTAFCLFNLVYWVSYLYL

| Structure (SMILES) | % of 10 μM GABA response [1] | mitochondrial membrane potential (MMP) of HepG2 cells [2] | % remaining (parent compound) ([3]; microsomes, 2 h, 50 μM) | remaining at 2 h, 50 μM ([3]; microsomes) | cytotoxic effect in HepG2 cells [4] | pKi GABA-A [5] | solubility at 24 h [6] | formation of hydroxylated metabolite (M1) ([3]; 120 min, 50 μM) | hepatotoxicity in HepG2 cells ([4]; at 100 and 50 μM) |
| --- | --- | --- | --- | --- | --- | --- | --- | --- | --- |
| Cc1ccc2nc(-c3ccc(F)cc3)n(CC(=O)N3CCCC3)c2c1 [Compound 9, 2-(2-(4-Fluorophenyl)-6-methyl-1H-benzo[d]imidazole-1-yl)-1-(pyrrolidin-1-yl)ethan-1-one] | 172 ± 12,5% | did not observe mitochondrial membrane potential (MMP) attenuation | 90.12% | 90% | did not induce any significant cytotoxic effect | 5.5 | 50 ± 0.54 µg/mL (≈ 148 µM) |  |  |
| NC(=O)c1cccc(NC(=O)Cn2c(-c3ccc(F)cc3)nc3ccccc32)c1 [Compound 23, 3-(2-(2-(4-Fluorophenyl)-1H-benzo[d]imidazole-1-yl)acetamido)benzamide] | 132 ± 13,2% | did not observe mitochondrial membrane potential (MMP) attenuation |  | 89.1% | did not induce any significant cytotoxic effect | 6.05 | 74 ± 0.81 µg/mL (≈ 191 µM) | 10.87% |  |
| CCCN(CCC)C(=O)Cc1c(-c2ccc(Cl)cc2)nc2ccc(Cl)cn12 [alpidem, reference compound] |  | induced mitochondrial dysfunction |  | 38.6% |  |  |  |  | noticeable hepatotoxicity |
